Assay results: US6498137B1, “Aerosol cleaning composition containing an organic acid and a spore forming microbial composition” (Spartan Chemical Company, Inc., priority 2001, dated 2002)

Assays:
[1] = test system: test organism; experiment: Nisin in letheen broth sub-culture: effect on the test organism; type: cell-based; conditions: 0.1 μg/ml nisin in letheen broth
Method: (§1) Nisin is not an ingredient in the product formulation. It is a modification to the AOAC test method. Specifically, when setting up the test sub-culture 0.1 μg/ml of nisin is added to the letheen broth.

[2] = test system: Bacillus spores; experiment: Nisin in letheen broth sub-culture: out-growth of Bacillus spores; type: cell-based; conditions: 0.1 μg/ml nisin in letheen broth
Method: as §1

nisin
bacteriostatic effect on the test organism [1]: no bacteriostatic effect | out-growth of Bacillus spores transferred on the carrier [2]: inhibits out-growth
